What was measured:
[1] = system: myocardial blood flow (MBF); test: 13N-ammonia PET myocardial blood flow, canines without coronary stenosis; assay type: in vivo; details: for mean MBF: absence of stenosis, hypercapnia ~25 mmHg increase in PaCO2, standard dose adenosine; for Global MBF normalized by rate-pressure-product: intact canines, in ml/min/g per mmHg·bpm
Experimental: We investigated whether a physiologically tolerable hypercapnia stimulus ( 25-mmHg increase in PaCO2) can increase myocardial blood flow (MBF) to that observed with adenosine in three groups of canines: (i) without coronary stenosis; (ii) subjected to non-flow limiting coronary stenosis; and (iii) following pre-administration of caffeine. These studies were conducted by prospectively and independently controlling PaCO2 and combining it with ^[…]-ammonia Positron Emission Tomography (PET) measurements, and the extent of effect on MBF due to hypercapnia was compared to adenosine. The objectives of these studies were twofold: to investigate the effects of PaCO2 on MBF while minimizing contributions from factors that can unintentionally reduce or inaccurately report on sensitivity of PaCO2 on MBF; and to assess whether an independent, precise and rapid establishment of physiologically tolerable level of hypercapnia provides equivalent hyperemia as adenosine, a commonly used pharmacological stimulus for cardiac stress testing with and without pre-administration of caffeine. To address these aims, a clinically relevant animal model was used along with validated strategies for (i) precisely and rapidly establishing desired levels of PaCO2, while holding PaO2 constant; (ii) quantifying MBF in vivo; and (iii) image analysis to derive MBF values across the different coronary supply territories. We compared our findings to the effects of standard dose of adenosine in the same animal models with and without coronary stenosis to quantify MBF and flow deficit regions under peak tolerable PaCO2. To determine whether MBF response to PaCO2 overlaps the same mechanistic path as adenosine, we quantified MBF under hypercapnia and adenosine following caffeine administration. Studies were conducted as described in Yang, H-J et al., J. Nucl. Med. 58: 953-960 (2017), which is hereby incorporated by reference in its entirety. […] FIG. 13 is a table summarizing the mean arterial CO2, O2 and hemodynamic variables of interest in Group Intact. FIG. 14A-14D show the mean global MBF and MPR response to hypercapnia in relation to adenosine. Global MBF under adenosine and hypercapnia were both higher than at rest (p<0.05, for both) and were not different from one another (p=0.33). […] Similar observations were evident for regional MBF and MPR with hypercapnia and adenosine. The observed range of MBF at rest (0.44 to 1.93 ml/min/g) and adenosine (0.47 to 5.10 ml/min/g) and range of MPR under adenosine (1.20 to 4.57) across the animals is consistent with previous reports (Kuhle, W. G. et al., Circulation 86:1004-1017 (1992)).

[2] = system: myocardial blood flow (MBF); test: 13N-ammonia PET myocardial blood flow following pre-administration of caffeine; assay type: in vivo, canines; details: for MBF response relative to rest: following caffeine administration
Experimental: These studies were conducted by prospectively and independently controlling PaCO2 and combining it with ^13N-ammonia Positron Emission Tomography (PET) measurements, and the extent of effect on MBF due to hypercapnia was compared to adenosine.
The objectives of these studies were twofold: to investigate the effects of PaCO2 on MBF while minimizing contributions from factors that can unintentionally reduce or inaccurately report on sensitivity of PaCO2 on MBF; and to assess whether an independent, precise and rapid establishment of physiologically tolerable level of hypercapnia provides equivalent hyperemia as adenosine, a commonly used pharmacological stimulus for cardiac stress testing with and without pre-administration of caffeine. To address these aims, a clinically relevant animal model was used along with validated strategies for (i) precisely and rapidly establishing desired levels of PaCO2, while holding PaO2 constant; (ii) quantifying MBF in vivo; and (iii) image analysis to derive MBF values across the different coronary supply territories. […] To determine whether MBF response to PaCO2 overlaps the same mechanistic path as adenosine, we quantified MBF under hypercapnia and adenosine following caffeine administration. Studies were conducted as described in Yang, H-J et al., J. Nucl. Med. 58: 953-960 (2017), which is hereby incorporated by reference in its entirety.

[3] = system: myocardium; test: Myocardial BOLD MRI response to PaCO2 modulation while PaO2 is held constant; assay type: in vivo, canines
Experimental: In Examples 1-6, all imaging studies were performed in instrumented animals with a Doppler flow probe attached to the LAD coronary arteries for measurement of flow changes in response to CO2 and clinical dose of adenosine. In these studies, CO2 and O2 delivery were tightly controlled using […]. […] At each CO2 level, free-breathing and cardiac gated blood-oxygen-level-dependent (BOLD) acquisitions were prescribed at mid diastole and Doppler flow velocities were measured. Similar acquisitions were also performed with block sequences of CO2 levels; that is, CO2 levels were alternated between 40 and 50 mmHg and BOLD images (and corresponding Doppler flow velocities) were acquired at each CO2 level to assess the reproducibility of the signal changes associated with different CO2 levels. Each delivery of CO2 using […] was made in conjunction with arterial blood draw to determine the arterial blood CO2 levels. […] We assessed the difference between myocardial blood-oxygen-level dependent (BOLD) response under hypercarbia and normocarbia conditions in canines. The BOLD signal intensity is proportional to oxygen saturation. […] The lower panel depicts the difference as obtained by subtracting the signal under rest from that under stress. […] We further assessed the myocardial BOLD response to stepwise CO2 increase (ramp-up) in canines. […] To further evaluate vascular reactivity and coronary response to CO2, we measured the myocardial BOLD signal in response to block increases of CO2 in canines. Specifically, the myocardial BOLD signal was measured as the amount of CO2 administered to the canine subjects alternated between 40 mmHg CO2 and 50 mmHg CO2. […] The myocardium is supplied with blood by the left anterior descending (LAD) artery, the right coronary artery (RCA) and the left circumflex (LCX) artery. We measured the blood flow through each of these arteries in response to increasing CO2 supply. As shown in FIG. 6 and summarized in FIG. 7, in each of the three LAD, RCA and LCX arteries, there is a direct correlation between the amount of CO2 administered and the signal intensity; as the amount of administered CO2 increases, the signal intensity, signaling the blood flow, in each of the three arteries increases. Further, as shown in FIG. 6 and summarized in FIG. 8, there was no response to CO2 modulation in control territories such as blood, skeletal muscle or air. […] Vascular reactivity of three canines that were administered with adenosine was compared with the vascular reactivity of canines that were administered with CO2. As shown in FIGS. 10A and 10B, the hyperemic adenosine stress BOLD response was approximately 12% compared with 16% in response to CO2.

[4] = system: myocardium; test: Myocardial BOLD response to PaCO2 in human volunteers; assay type: in vivo, humans; details: early human data, pCO2 change of 10 mmHg, from 35 mmHg to 45 mmHg
[5] = system: myocardial blood flow (MBF); test: 13N-ammonia PET myocardial blood flow and perfusion defect, canines with LAD coronary stenosis; assay type: in vivo; details: for regional MBF versus rest: all territories (LAD, LCx, RCA); for regional MBF versus rest / MBF increase in the LAD territory: p<0.05; for MBF increase in the LAD territory: compared with LCx and RCA territories
Experimental: We investigated whether a physiologically tolerable hypercapnia stimulus ( 25-mmHg increase in PaCO2) can increase myocardial blood flow (MBF) to that observed with adenosine in three groups of canines: (i) without coronary stenosis; (ii) subjected to non-flow limiting coronary stenosis; and (iii) following pre-administration of caffeine. These studies were conducted by prospectively and independently controlling PaCO2 and combining it with ^[…]-ammonia Positron Emission Tomography (PET) measurements, and the extent of effect on MBF due to hypercapnia was compared to adenosine. The objectives of these studies were twofold: to investigate the effects of PaCO2 on MBF while minimizing contributions from factors that can unintentionally reduce or inaccurately report on sensitivity of PaCO2 on MBF; and to assess whether an independent, precise and rapid establishment of physiologically tolerable level of hypercapnia provides equivalent hyperemia as adenosine, a commonly used pharmacological stimulus for cardiac stress testing with and without pre-administration of caffeine. To address these aims, a clinically relevant animal model was used along with validated strategies for (i) precisely and rapidly establishing desired levels of PaCO2, while holding PaO2 constant; (ii) quantifying MBF in vivo; and (iii) image analysis to derive MBF values across the different coronary supply territories. We compared our findings to the effects of standard dose of adenosine in the same animal models with and without coronary stenosis to quantify MBF and flow deficit regions under peak tolerable PaCO2. To determine whether MBF response to PaCO2 overlaps the same mechanistic path as adenosine, we quantified MBF under hypercapnia and adenosine following caffeine administration. Studies were conducted as described in Yang, H-J et al., J. Nucl. Med. 58: 953-960 (2017), which is hereby incorporated by reference in its entirety. […] FIGS. 16A, 16B, 16E show the mean regional MBF in LAD, left circumflex artery (LCx) and right coronary artery (RCA) supply territories at rest, hypercapnia and adenosine. MBF values were not different at rest among the different supply territories (p>0.4, for all). […] MBF under hypercapnia was not different between the LCx and RCA territories (hypercapnia: p=0.21); the same was true under adenosine (p=0.50). For each myocardial supply territory, MBF under hypercapnia and adenosine were not different (p=1.00, for all). […] MPR under hypercapnia was not different between the LCx and RCA territories (hypercapnia: p=0.59); the same was true under adenosine (p=0.34). For each myocardial supply territory, MPR under hypercapnia and adenosine were not different (p>0.5 for all). […] Perfusion defect volumes and visual scoring under hypercapnia vs. adenosine were determined. TRP obtained under hypercapnia and adenosine were not different: 25±19% (hypercapnia) vs. 27±15% (adenosine); p=0.12. Direct comparison of TRP within the same subjects under hypercapnia and adenosine were highly correlated (R=0.85, p<0.05) and were in good agreement (bias=2%). Similar trends were observed from visual scoring analysis. No difference between the scores from hypercapnia and adenosine was observed from a paired sampled Wilcoxon signed rank test (p=0.26). Visual scores between hypercapnia and adenosine were concordant with most segments falling onto the diagonal of the scoring matrix (FIG. 18).

[6] = system: left anterior descending (LAD) artery; test: Doppler flow in the left anterior descending artery in response to PaCO2 modulation; assay type: in vivo, canines; details: increasing amount of administered CO2, PaO2 held constant
Experimental: (§1) In Examples 1-6, all imaging studies were performed in instrumented animals with a Doppler flow probe attached to the LAD coronary arteries for measurement of flow changes in response to CO2 and clinical dose of adenosine. In these studies, CO2 and O2 delivery were tightly controlled using Respiract. CO2 values were incremented in steps of 10 mmHg starting from 30 mmHg to 60 mmHg and were ramped down in decrements of 10 mmHg. At each CO2 level, free-breathing and cardiac gated blood-oxygen-level-dependent (BOLD) acquisitions were prescribed at mid diastole and Doppler flow velocities were measured. Similar acquisitions were also performed with block sequences of CO2 levels; that is, CO2 levels were alternated between 40 and 50 mmHg and BOLD images (and corresponding Doppler flow velocities) were acquired at each CO2 level to assess the reproducibility of the signal changes associated with different CO2 levels. Each delivery of CO2 using Respiract was made in conjunction with arterial blood draw to determine the arterial blood CO2 levels.
The Doppler flow was measured in the left anterior descending (LAD) artery. […] The relative change in coronary flow velocity was directly proportional to the amount of CO2 administered.

[7] = system: LAD coronary arteries; test: Epicardial flow enhancement, Carbogen against clinical dose of adenosine; assay type: in vivo, dogs; details: Carbogen with ETCO2 reaching 48-50 mm Hg
Experimental: as §1
In detail, the color images (lower panel of FIG. 1) are color-coded to the signal intensities of grayscale images (above). The darker colors (blue/black) represent territories of baseline myocardial oxygenation and the brighter regions represent those regions that are hyperemic. […]

| SMILES | mean MBF [1] [mL/min/g] | Global MBF normalized by rate-pressure-product [1] | MBF response relative to rest [2] | BOLD signal intensity ([3]; block increase from 40 mmHg CO2 to 50 mmHg CO2, canines) | BOLD signal intensity ([3]; hypercarbia (60 mm Hg) vs normocarbia (30 mmHg), canines) | signal intensity, signaling the blood flow, in LAD, RCA and LCX arteries ([3]; increasing amount of administered CO2) | BOLD signal intensity ([3]; stepwise CO2 increase (ramp-up), canines) | hyperemic response (BOLD) [4] | total reduction in perfusion volume (TRP, % LV) between stress and rest [5] [%] | regional MBF versus rest [5] | MBF increase in the LAD territory [5] | Doppler flow in LAD artery [6] | resting MBF normalized by rate-pressure-product ([2]; post-administration of caffeine (1.5×10^−5 pre-administration, p=0.03)) | epicardial flow enhancement response [7] | global MPR ([2]; under caffeine, p<0.05) | hyperemic BOLD response ([3]; canines, mean, adenosine stress in three canines) |
| --- | --- | --- | --- | --- | --- | --- | --- | --- | --- | --- | --- | --- | --- | --- | --- | --- |
| O=C=O [CO2, carbon dioxide] | 2.1 ± 0.9 | 1.26×10^−5±0.56×10^−5 | able to induce myocardial hyperemia | increase in BOLD signal intensity | increase in BOLD signal intensity | increases | increases | approximately 11% | 25±19 | increased | significantly lower than in the LCx and RCA territories | increases | – | – | – | – |
| Cn1c(=O)c2c(ncn2C)n(C)c1=O [caffeine] | – | – | – | – | – | – | – | – | – | – | – | – | 1.0×10^−5 | – | – | – |
| Nc1ncnc2c1ncn2[C@@H]1O[C@H](CO)[C@@H](O)[C@H]1O [adenosine, reference compound] | 2.2 ± 1.1 | 1.16×10^−5±0.80×10^−5 | no change in MBF | – | – | – | – | – | 27±15 | increased | significantly lower than in the LCx and RCA territories | – | – | about 20% | lower than under hypercapnia | approximately 12% |

Source: US12076421B2, “Assessment of coronary heart disease with carbon dioxide” (priority 2011, dated 2024)
